According to patent US9290741B2, “Simplified methods for generating endothelial cells from human pluripotent stem cells under defined conditions” (Wisconsin Alumni Research Foundation, priority 2013, dated 2016):

Assays:
[1] = system: hPSC-derived endothelial cells; assay: Monolayer integrity: transendothelial electrical resistance (TEER); assay type: cell-based, human; conditions: 100 ng/mL VEGF or 10 μM oME, versus control
[2] = system: hPSC-derived endothelial cells; assay: Monolayer integrity: 40-kDa FITC-dextran permeability; assay type: cell-based, human; conditions: 100 ng/mL VEGF or 10 μM oME, 24 hr of treatment, versus control
[3] = system: 19-9-11 iPSCs; assay: Angioblast differentiation of hPSCs, flow cytometry of CD34 and CD31 at day 5; assay type: cell-based, human; conditions: for induction of angioblast differentiation (percentage of CD34^+CD31^+ cells): 0.6 μM CHIR98014 or 0.6 μM BIO-acetoxime 2 days in LaSR medium, then StemPro-34 3 days, no VEGF, compared with 6 μM CHIR99021
Experimental: Cells were then cultured in mTeSR1, changed daily. At day 0, cells were treated with 6-10 μM CHIR99021 (Selleckchem) for 2 days in LaSR basal medium, which consists of Advanced DMEM/F12, 2.5 mM GlutaMAX, and 60 μg/ml ascorbic acid (Sigma, A8960). […] Cells were dissociated into single cells with Accutase for 10 min and then fixed with 1% paraformaldehyde for 20 min at room temperature and stained with primary and secondary antibodies (Table 2) in PBS plus 0.1% Triton X-100 and 0.5% BSA. Data were collected on a FACSCaliber flow cytometer (Becton Dickinson) and analyzed using FlowJo.

[4] = system: 19-9-11 ishcat iPSCs; assay: Flow cytometry analysis of Brachyury expression during differentiation; assay type: cell-based, human; conditions: 6 μM CHIR99021, in the absence of dox
Experimental: FIG. 8 Knockdown of β-catenin abolishes endothelial differentiation of hPSCs 19-9-11 ishcat iPSCs were cultured in LaSR basal medium containing 6 μM CH and/or 2 μg/ml doxycycline for 2 days. Flow cytometry analysis of Brachyury expression was performed after 2 days of differentiation.
Cells were dissociated into single cells with Accutase for 10 min and then fixed with 1% paraformaldehyde for 20 min at room temperature and stained with primary and secondary antibodies (Table 2) in PBS plus 0.1% Triton X-100 and 0.5% BSA. Data were collected on a FACSCaliber flow cytometer (Becton Dickinson) and analyzed using FlowJo.

[5] = system: H9 cells; assay: Angioblast differentiation of hPSCs with PD0325901 addition, flow cytometry of CD34 and CD31 at day 5; assay type: cell-based, human; conditions: 1 μM PD0325901 added during differentiation induced with 6 μM CHIR99021
Experimental: FIG. 2 CD34^+CD31^+ angioblast differentiation induced by Gsk3 inhibitors in hPSCs is β-catenin dependent. […] At day 5, the percentage of CD34^+CD31^+ cells in culture was assessed by flow cytometry. (B) 19-9-11 iscramble and 19-9-11 […] cultured in mTeSR1 containing 2 μg/ml doxycycline. After 3 days, mRNA was collected and β-catenin expression evaluated by qPCR. Error bars represent the s.e.m. of 3 biological replicates. # […] versus iscramble; […] cultured in LaSR medium containing 6 μM CHIR99021 for 2 days before exposure to StemPro-34 medium for 3 days, with 2 μg/ml dox addition at the indicated times. 5 days after initiation of differentiation, cells were analyzed for CD34 and CD31 expression by flow cytometry. Error bars represent the s.e.m. of three independent experiments. […] hPSCs maintained on a MatrigelTM-coated surface in mTeSR1 were dissociated into single cells with Accutase (Life Technologies) at 37° C. for 5 min and then seeded onto a MatrigelTM-coated cell culture dish at 50,000 cell/cm^2 in mTeSR1 supplemented with 5 μM ROCK inhibitor Y-27632 (Selleckchem)(day -3) for 24 hours. Cells were then cultured in mTeSR1, changed daily. […] Data were collected on a FACSCaliber flow cytometer (Becton Dickinson) and analyzed using FlowJo.

[6] = system: hPSC-derived endothelial cells; assay: Flow cytometry analysis of ICAM-1 surface expression after TNF-α treatment; assay type: cell-based, human; conditions: 10 ng/mL TNF-α for 16 hours versus unstimulated cells
Excerpt: FIG. 6 Characterization of endothelial cells derived from hPSCs (A) 19-9-11 iPSCs were differentiated as illustrated in FIG. 3A using LaSR basal medium. At day 5, CD34^+ cells were enriched and cultured in endothelial medium on laminin-coated plates. At different time points, the cell numbers were counted. (B-D) the purified day 60 endothelial cells were immunostained with (B) VE-cadherin and CD31, and tested for (C) tube-forming ability upon VEGF treatment and the ability to (D) uptake acetylated low-density lipoprotein (AcLDL). (E) Flow cytometry analysis of surface protein expression of ICAM-1 of untreated cells or cells treated with 10 ng/mL TNF-α for 16 hours. Error bars represent the s.e.m. of three independent experiments. (F-G) Barrier phenotype of the hPSC-derived endothelial cells. […] Barrier function was assessed by measuring transendothelial electrical resistance (TEER) 48 hours after seeding. […] (F) Transendothelial electrical resistance (TEER) was measured as a function of time, and normalized to the initial TEER value (36.7±4.3 Ωcm^2. (G) TEER and fluorescent dextran permeability were measured 24 hours after plating. Error bars represent the s.e.m. of three biological samples. ** p<0.005, VEGF (or oME) versus control; t test. […]

[7] = system: hPSC-derived endothelial cells; conditions: 50 ng/ml VEGF, 24 h; day 60 endothelial cells
Experimental: To assess the formation of capillary structures, 1×10^5 endothelial cells in 0.4 ml EGM-2 medium (Lonza) supplemented with 50 ng/ml VEGF (R&D Systems) were plated into one well of 24-well tissue culture plate pre-coated with 250 μl Matrigel™ (BD Bioscience). Tube formation was observed by light microscopy after 24 h of incubation.

Question: Which results are given for `CO[C@@H]1[C@@H]2OP(=O)(O)OC[C@H]2O[C@H]1n1c(Sc2ccc(Cl)cc2)nc2c(N)ncnc21` [8-pCPT-2′O-Me-cAMP, 8-(4-chlorophenylthio)-2′-O-Me-cAMP]?
Answer: transendothelial electrical resistance (TEER) [1]: increased; dextran permeability (40 kD) [2]: decreased

Question: Which “CD31^+CD34^+ angioblasts generated” value ([3]; 6-10 μM CHIR99021 2 days, then 3 days StemPro-34 without VEGF, day 5) does the source give for `Cc1c[nH]c(-c2cnc(NCCNc3ccc(C#N)cn3)nc2-c2ccc(Cl)cc2Cl)n1` [CHIR99021] here?
Answer: 25%

Question: And the “CD34^+CD31^+ cells generated” value ([3]; CHIR99021 (6 μM) 2 days in LaSR basal medium, then 3 days StemPro-34 with or without VEGF, day 5)?
Answer: more than 20%

Question: What about the “CD34^+CD31^+ cells produced” value ([3]; LaSR basal medium, CHIR99021 2 days then 3 days without, seeding density 50,000 cells per cm2 at day -3) of the same compound?
Answer: 55%

Question: And the “CD34^+CD31^+ cells in 5 days” value ([3]; single basal medium: LaSR basal medium with CHIR99021 2 days, then 3 days same medium without)?
Answer: 25%

Question: What about the “CD34^+CD31^+ cells in 5 days” value ([3]; single basal medium: RPMI/B27 or EC medium containing serum, with CHIR99021 2 days, then 3 days without) of the same compound?
Answer: not supporting differentiation to any detectable CD34^+CD31^+ cells

Question: What about the “Brachyury expressing cells by day 2” value [4] of the same compound?
Answer: virtually pure population

Question: `O=C(NOC[C@H](O)CO)c1ccc(F)c(F)c1Nc1ccc(I)cc1F` [PD0325901] was tested. Which “effect on CD34^+CD31^+ cell differentiation” value [5] did it give?
Answer: substantially diminished

Question: How did the “induction of angioblast differentiation (percentage of CD34^+CD31^+ cells)” value [3] turn out when BIO-acetoxime was run?
Answer: effectively induced angioblast differentiation to a similar extent as CHIR99021

Question: CHIR98014 was tested. Which “induction of angioblast differentiation (percentage of CD34^+CD31^+ cells)” value [3] did it give?
Answer: effectively induced angioblast differentiation to a similar extent as CHIR99021

Question: With TNFα as the compound, how does the “expression of ICAM1” value [6] read?
Answer: greatly increased

Question: Which “transendothelial electrical resistance (TEER)” value [1] does the source give for VEGF here?
Answer: sustained decrease

Question: And the “effect of VEGF treatment on yield of CD34^+CD31^+ cells” value ([3]; VEGF in StemPro-34 for 3 days after CHIR99021, day 5)?
Answer: did not significantly increase

Question: What about the “dextran permeability (40 kD)” value [2] of the same compound?
Answer: increase

Question: And the “vascular tube formation in Matrigel matrix” value [7]?
Answer: formed vascular tubes
